Here are results for 1 substance from patent US11065300B2, “Immunomodulator for hypersensitivity reaction to house dust mite-derived allergen” (MD HEALTHCARE INC., priority 2016, dated 2021).

The subject of this test is macrophage RAW264.7. As to the kind of experiment: IL-6 and TNF-alpha secretion by macrophages given MicA sRNA Salmonella vesicles mixed with PMB. The format is cell-based. On the procedure:
Salmonella-derived vesicles themselves have good immunogenicity, but toxicity due to LPS present in the extracellular membrane is a problem. In order to solve this problem, the induction level of innate immune response was evaluated by mixing PMB inhibiting the activity of LPS with vesicles derived from Salmonella overexpressing Mic A sRNA.
Specifically, inflammatory cells (macrophage RAW264.7, 5×10^5 cells/well) were cultured in DMEM comprising 10% FBS and antibiotics (100 units/ml penicillin and 100 μg/ml streptomycin) for 24 hours at 37° C. 24 well tissue culture plate (TPP). After the medium was removed, extracellular vesicles comprising PMB were changed to serum-free DMEM medium added at a concentration of 1 ug/ml. After 15 hours, secretion of IL-6 and TNF-alpha was measured in inflammatory cells.
In order to determine the optimum PMB dilution concentration, in the above method, the PMB concentration was subdivided into 1, 2, 4, 8, and 10 ug/ml and administered to the macrophages together with the vesicles.

With polymyxin B [PMB], the IL-6 secretion result (PMB 1 μg/ml or 10 μg/ml mixed with vesicles 1 ug/ml, RAW264.7, 15 hours) was “decreased”. The TNF-alpha secretion result (PMB 10 μg/ml mixed with vesicles 1 ug/ml, RAW264.7, 15 hours) is listed as “inhibited”. Also, under “PMB 1, 2, 4, 8 and 10 ug/ml with vesicles, RAW264.7”, the “PMB concentration above which secretion of IL-6 no longer decreased” value came to 2 µg/mL.
